# According to US5990083A, “Multicatalytic protease inhibitors” (Cephalon, Inc., priority 1997, dated 1999):
# Where “and” joins values, the source holds several entries; their conditions need not be identical. Equal values may be shown once.
# Biological target: T1, human MCP (Homo sapiens, UniProt P28074+Q99436)
# T1 construct: Samples of human liver and brain obtained post-mortem were used for isolation and partial purification of MCP; from tissue; host or cells: human liver and brain, post-mortem
# Test: Determination of IC50 values for MCP inhibitors (chymotrypsin-like or trypsin-like activity of MCP)
# Format: biochemical
# Details: for % Inhibition (1 μM): 1 μM inhibitor
# Description: Samples of human liver and brain obtained post-mortem were used for isolation and partial purification of MCP by ion-exchange chromatography, ammonium sulfate precipitation, and gel filtration (e.g., Driscoll and Goldberg, Proc. Natl. Acad. Sci. 86, 787-791 (1989); Yamamoto et al., Biochim, Biophys. Acta 882, 297-304 (1986). For either starting material, tissue was homogenized in 10 volumes of 20 mM Tris-HCl (pH 7.5) containing 20% glycerol. Following centrifugation at 40,000×g for 30 minutes, proteolytic activity of the chymotrypsin-like component of MCP could be detected in the supernatant (see below). The supernatant was fractionated on a DEAE-Sepharose Fast Flow column equilibrated in homogenization buffer. For each liter of supernatant, 250 ml of resin was used. Following sample loading, the column was washed with ^~ 10 volumes homogenization buffer, and proteins were eluted with a linear NaCl gradient of from 0 to 400 mM (21 for 250 ml resin). Fractions were assayed for MCP activity, and the active fractions were pooled and subjected to precipitation with (NH4)2 SO4 at 80% saturation. Precipitated proteins were collected by centrifugation, resuspended in homogenization buffer, and loaded on a Sephacryl S300HR column (500 ml resin volume) that had been standardized using bovine serum albumin (68 kDa). A single peak of MCP activity was eluted with a molecular weight of ^~ 650 kDa. This preparation was free of other measurable proteolytic activities and maintained its MCP activity upon storage at 4° C. for >6 months. This preparation was used for most of the experiments. Further fractionation of the preparation on an hydroxyapatite-Ultrogel column (Yamamoto et al., supra) yielded a more highly purified enzyme, which according to denaturing SDS-polyacrylamide gel electrophoresis was comprised of the expected >10 subunits ranging in Mr from 20 to 35 kDa.
# The procedure for MPC isolation described above generated an enzyme complex whose proteolytic activities were latent, but which could be activated by addition of low concentrations (0.02-0.05%) of SDS (Yamamoto et al., supra). The chymotrypsin-like activity was assayed according to the following procedure: in 96 well microtiter plates, human MCP was diluted 4 to 10-fold in homogenization buffer containing 0.04% SDS. A calorimetric substrate MeOSuc-EVKM-para-nitroanilide (methoxysuccinyl-Glu-Val-Lys-Met-pNa), purchased from Bachem Bioscience Inc., King of Prussia, Pennsylvania was added to a final concentration of 100 μM from a stock solution of 10 mM in dimethylsulfoxide. Reaction volumes were 200 μl per well. After incubation for various periods of time at 37° C., the concentration of free pNa was determined on a Biotech EL-340 microplate reader, reading absorption at 490 nm. Protease activity was determined under conditions in which substrate hydrolysis increased linearly with time and the change in absorption was proportional to the concentration of free pNa. Alternatively, a fluorogenic substrate was used, methoxysuccinyl-Phe-Leu-Phe-amidomethylcoumarin (Enzyme Systems Products, Dublin, Calif.), and the change in fluorescence monitored at an excitation of 390 nm, and an emission at 460 nm.
# The trypsin-like activity of human MCP was assayed as described above with the following modifications. Reactions were carried out in Tris-glycerol buffer (pH 9.5) supplemented with 1 mM 2-mercaptoethanol, and the substrate was a fluorogenic substrate, Benzyloxycarbonyl--Phe--Arg--AMC (100 μM).
# After incubation for various periods of time at 37° C., the concentration of free AMC was determined on a Fluoroskan II spectrofluorimeter with an excitation filter of 390 nm and an emission filter of 460 nm. Protease activity was determined under conditions in which substrate hydrolysis increased linearly with time and the change in fluorescence was proportional to the concentration of free AMC. […]
# [1] = Table 5, first series, enzyme incubated with inhibitor 15 minutes at 37° C. prior to substrate
# [2] = Table 5, second series (Examples 36-38), enzyme incubated with inhibitor 15 minutes at 37° C. prior to substrate
Molecule,IC50 [1],other results
"CC(C)C[C@H](NC(=O)[C@H](CCCNC(=N)N[N+](=O)[O-])NC(=O)C(CCCCCCCCC#N)C1CCCC1)C(=O)CCl (single isomer, unassigned; isomer a) [39 (Isomer a), 10-Cyano-2-cyclopentyl-decanoyl-N^g-nitro-L-arginyl-L-leucine chloromethylketone]",,"IC50 (Table 7): > 1000 nM; % Inhibition (1 μM) (Table 7, 1 µM): 31%"
"CCNC(=O)C(=O)[C@H](CC(C)C)NC(=O)[C@H](CCCNC(N)=N[N+](=O)[O-])NC(=O)C(CCCCCCCCC#N)C1CCCC1 (single isomer, unassigned; isomer a) [41 (Isomer a), 10-Cyano-2-Cyclopentyl-decanoyl-N^g-nitro-L-arginyl-L-leucine alpha-ketoethylamide]",,"IC50 (Table 7): 22 nM; % Inhibition (1 μM) (Table 7, 1 µM): 99%"
"CC(C)C[C@H](NC(=O)[C@H](CCCNC(=N)N[N+](=O)[O-])NC(=O)C(CCCCCCCCC#N)C1CCCC1)C(=O)CCl (single isomer, unassigned; isomer b) [39 (Isomer b), 10-Cyano-2-cyclopentyl-decanoyl-N^g-nitro-L-arginyl-L-leucine chloromethylketone]",,"IC50 (Table 7): > 1000 nM; % Inhibition (1 μM) (Table 7, 1 µM): 21%"
"Cc1c(C)c(S(=O)(=O)NC(=N)NCCC[C@H](NC(=O)C(CCCCCCCCC#N)C2CCCC2)C(=O)N[C@H](C=O)CC(C)C)c(C)c2c1OC(C)(C)CC2 (stereo partly drawn) [Compound 15, 10-Cyano-2-cyclopentyl-decanoyl-N^g-(2,2,5,7,8-pentamethylchroman-6-sulfonyl)-L-arginyl-L-leucinal]",20 nM,
"CON=C[C@H](CC(C)C)NC(=O)[C@H](CCCN=C(N)N[N+](=O)[O-])NC(=O)C(CCCCCCCCC#N)C1CCCC1 (stereo partly drawn) [Compound 18, 10-cyano-2-cyclopentyl-decanoyl-N^g-nitro-L-arginyl-L-leucinal-O-methyloxime]",700 nM,
"COC(=O)CCCCCCCC(C(=O)N[C@@H](CCCNC(N)=NS(=O)(=O)c1c(C)cc(OC)c(C)c1C)C(=O)N[C@H](C=O)CC(C)C)C1CCCC1 (stereo partly drawn) [Compound 21, 9-Methoxycarbonyl-2-cyclopentyl-nonanoyl-N^g-(4-methoxy-2,3,6-trimethyl-benzene-1-sulfonyl)-L-arginyl-L-leucinal]",30 nM,
"COC(=O)CCCCCCCC(C(=O)N[C@@H](CCCNC(N)=N[N+](=O)[O-])C(=O)N[C@H](C=O)CC(C)C)C1CCCC1 (stereo partly drawn) [Compound 23, 9-Methoxycarbonyl-2-cyclopentyl-nonanoyl-N^g-nitro-L-arginyl-L-leucinal]",5 nM,
"CC(C)C[C@@H](C=O)NC(=O)[C@H](CCCNC(=N)N[N+](=O)[O-])NC(=O)C(CCCCCCCCNS(=O)(=O)C(F)(F)F)C1CCCC1 (stereo partly drawn) [Compound 25, 10-(trifluoromethanesulfonyl)amino-2-cyclopentyl-decanoyl-N^g-nitro-L-arginyl-L-leucinal]",8 nM and 5 nM,
"COC(=O)CCCCCCCC(=O)N[C@@H](CCCN=C(N)N[N+](=O)[O-])C(=O)N[C@H](C=O)CC(C)C [Compound 26, Monomethylazelayl-N^g -nitro-L-arginyl-L-leucinal]",40 nM,
"Cc1c(C)c(S(=O)(=O)NC(N)=NCCC[C@H](NS(=O)(=O)CCCCCCC#N)C(=O)N[C@H](C=O)CC(C)C)c(C)c2c1OC(C)(C)CC2 [Compound 36, 6-Cyano-hexane-1-sulfonyl-N^g-(2,2,5,7,8-pentamethylchroman-6-sulfonyl)-L-arginyl-L-leucinal]",,IC50 [2]: > 100 nM
"CC(C)C[C@@H](C=O)NC(=O)[C@H](CCCNC(=N)N[N+](=O)[O-])NC(=O)c1ccc2ccccc2c1 [Compound 37, 2-Naphthoyl-N^g-nitro-L-arginyl-L-leucinal]",,IC50 [2]: 250 nM
"CC(C)CC(NC(=O)[C@H](CCCNC(N)=N[N+](=O)[O-])NC(=O)C(CCCCCCCCC#N)C1CCCC1)B1OC(C)(C)C(C)(C)O1 (stereo partly drawn) [Example 40, 10-Cyano-2-cyclopentyl-decanoyl-N^g-nitro-L-arginyl-boroleucine pinacol ester]",,IC50 (Table 7): 6 nM; % Inhibition (1 μM) (Table 7): 100%
"N#CCCCCCCCCC(C(=O)N[C@@H](CCCNC(N)=N[N+](=O)[O-])C(=O)NC(Cc1ccccc1)C(=O)CF)C1CCCC1 (stereo partly drawn) [Example 42, 10-Cyano-2-cyclopentyl-decanoyl-N^g-nitro-L-arginyl-phenylalanine fluoromethylketone]",,IC50 (Table 7): > 1000 nM; % Inhibition (1 μM) (Table 7): 15%

# Continued, in another order:
IC50 [1],Molecule,other results
110 nM,"CCCC[C@@H](C=O)NC(=O)[C@H](CCCNC(=N)NS(=O)(=O)c1c(C)c(C)c2c(c1C)CCC(C)(C)O2)NC(=O)C(CCCCCCCC(=O)OC)C1CCCC1 (stereo partly drawn) [Compound 22, 9-Methoxycarbonyl-2-cyclopentyl-nonanoyl-N^g-(2,2,5,7,8-pentamethylchroman-6-sulfonyl)-L-arginyl-L-norleucinal]",
20 nM,"COC(=O)CCCCCCCC(=O)N[C@@H](CCCNC(=N)NS(=O)(=O)c1c(C)c(C)c2c(c1C)CCC(C)(C)O2)C(=O)N[C@H](C=O)CC(C)C [Compound 28, Monomethylazelayl-N^g-(2,2,5,7,8-pentamethylchroman-6-sulfonyl)-L-arginyl-L-leucinal]",
> 300 nM,"COC(=O)CCCCCCCC(=O)N[C@H](CCCNC(N)=NS(=O)(=O)c1c(C)c(C)c2c(c1C)CCC(C)(C)O2)C(=O)N[C@H](C=O)CC(C)C [Compound 29, Monomethylazelayl-N^g-(2,2,5,7,8-pentamethylchroman-6-sulfonyl)-D-arginyl-L-leucinal]",
> 100 nM,"CCCC[C@@H](C=O)NC(=O)[C@H](CCCN=C(N)NS(=O)(=O)c1c(C)c(C)c2c(c1C)CCC(C)(C)O2)NC(=O)CCCCCCCC(=O)OC [Compound 30, Monomethylazelayl-N^g-(2,2,5,7,8-pentamethylchroman-6-sulfonyl)-L-arginyl-L-norleucinal]",
75 nM,"COC(=O)CCCCCCCC(=O)N[C@@H](CCCN=C(N)NS(=O)(=O)c1ccc(C)cc1)C(=O)N[C@H](C=O)CC(C)C [Compound 31, Monomethylazelayl-N^g -(p-toluenesulfonyl)-L-arginyl-L-leucinal]",
220 nM,"COC(=O)CCCCCCCC(=O)N[C@@H](CCCNC(N)=NS(=O)(=O)c1c(C)cc(OC)c(C)c1C)C(=O)N[C@H](C=NNC(N)=O)CC(C)C [Compound 32, Monomethylazelayl-N^g-(4-methoxy,2,3,6-trimethyl-1-sulfonyl)-L-arginyl-L-leucinal semicarbazone]",
700 nM,"COC(=O)CCCCCCCC(=O)N[C@@H](CCCNC(N)=NS(=O)(=O)c1c(C)cc(OC)c(C)c1C)C(=O)N[C@H](C=NNC(N)=S)CC(C)C [Compound 33, Monomethylazelayl-N^g-(4-methoxy,2,3,6-trimethyl-1-sulfonyl)-L-arginyl-L-leucinal thiosemicarbazone]",
40 nM,"COC(=O)CCCCCCCC(=O)N[C@@H](CCCNC(N)=NS(=O)(=O)c1c(C)cc(C)cc1C)C(=O)N[C@H](C=O)CC(C)C [Compound 35, Methoxyazelayl-N^g-(2,4,6-trimethylbenzene-1-sulfonyl)-L-arginyl-L-leucinal]",
130 nM,Monomethylazelayl-N^g -nitro-L-arginyl-L-phenylalaninal [Compound 27],
